pIC50: −log10 of the molar value. Activity calls are given as the source filed them. The rule behind the calls is not given here.
What was measured:
[1] = biological target: Ephrin type-B receptor 4 (Homo sapiens) (UniProt P54760); conditions: 2 uM
Description: Inhibition of EphB4 at 2 uM

[2] = biological target: Serine/threonine-protein kinase 3 (Homo sapiens) (UniProt Q13188); conditions: 2 uM
Description: Inhibition of Mst2 at 2 uM

[3] = biological target: Rho-associated protein kinase 2 (Homo sapiens) (UniProt O75116); experiment: Inhibition of ROCK2 at 2 uM
[4] = Cmax in Sprague-Dawley rat at 43 mg/kg, po; assay type: ADME, organism-based; design: dose 43 mg/kg, route oral; conditions: in vivo
[5] = Clearance in beagle dog at 13.8 mg/kg, iv; assay type: ADME, organism-based, Canis lupus familiaris; design: dose 13.8 mg/kg, route intravenous; conditions: in vivo
[6] = Oral bioavailability in BALB/c mouse at 40 mg/kg; assay type: ADME, organism-based; conditions: in vivo
[7] = biological target: Inhibitor of nuclear factor kappa-B kinase subunit beta (Homo sapiens) (UniProt O14920); conditions: 2 uM
Description: Inhibition of IKKb at 2 uM

[8] = biological target: Inhibitor of nuclear factor kappa-B kinase subunit alpha (Homo sapiens) (UniProt O15111); conditions: 2 uM
Description: Inhibition of IKKa at 2 uM

[9] = biological target: MAP kinase-activated protein kinase 5 (Homo sapiens) (UniProt Q8IW41); experiment: Inhibition of PRAK at 2 uM
[10] = biological target: Mitogen-activated protein kinase 1 (Homo sapiens) (UniProt P28482); experiment: Inhibition of ERK2 using ATGPLSPGPFGRR as substrate at 100 uM by spectrophotometric enzyme-coupled assay
[11] = biological target: Cytochrome P450 1A2 (Homo sapiens, UniProt P05177); experiment: Inhibition of human CYP1A2; assay type: ADME
[12] = system: Canis familiaris; experiment: AUC in beagle dog at 33 mg/kg, po; assay type: ADME, organism-based, Canis lupus familiaris, Plasma; design: dose 33 mg/kg, route oral; conditions: in vivo
[13] = AUC in BALB/c mouse at 40 mg/kg, po; assay type: ADME, organism-based; design: dose 40 mg/kg, route oral; conditions: plasma
[14] = biological target: Protein kinase C iota type (Homo sapiens) (UniProt P41743); conditions: 2 uM
Description: Inhibition of PKCiota at 2 uM

[15] = Induction of human cytochrome P450; assay type: ADME
[16] = system: Mus musculus; experiment: Antiarthritic activity in complete Freund's adjuvant-immunized DBA/1J mouse assessed as inhibition of type 2 collagen-induced bone and cartilage erosion at […], po bid measured on day 20; assay type: functional; conditions: 480 h, dose 2.5 mg/kg
[17] = Volume of distribution at steady state in BALB/c mouse at 2 mg/kg, iv; assay type: ADME, organism-based; design: dose 2 mg/kg, route intravenous; conditions: in vivo, read-out: Vdss
[18] = biological target: Dual specificity mitogen-activated protein kinase kinase 6 (Homo sapiens) (UniProt P52564); experiment: Inhibition of MKK6 at 2 uM
[19] = biological target: Tyrosine-protein kinase Lyn (Homo sapiens) (UniProt P07948); conditions: 2 uM
Description: Inhibition of Lyn at 2 uM

[20] = biological target: Protein kinase C theta type (Homo sapiens) (UniProt Q04759); conditions: 2 uM
Description: Inhibition of PKCtheta at 2 uM

[21] = biological target: Mitogen-activated protein kinase 11 (Homo sapiens) (UniProt Q15759); conditions: 2 uM
Description: Inhibition of p38beta at 2 uM

[22] = Plasma protein binding in rat; assay type: ADME, cell-free; conditions: read-out: PPB (converted)
[23] = biological target: RAF proto-oncogene serine/threonine-protein kinase (Homo sapiens) (UniProt P04049); conditions: 2 uM
Description: Inhibition of RAFc at 2 uM

[24] = biological target: Cytochrome P450 2C9 (Homo sapiens, UniProt P11712); experiment: Inhibition of human CYP2C9; assay type: ADME
[25] = biological target: Ribosomal protein S6 kinase alpha-2 (Homo sapiens) (UniProt Q15349); conditions: 2 uM
Description: Inhibition of Rsk3 at 2 uM

[26] = biological target: Cytochrome P450 2D6 (Homo sapiens, UniProt P10635); experiment: Inhibition of human CYP2D6; assay type: ADME
[27] = biological target: Cyclin-dependent kinase 5 (Homo sapiens) (UniProt Q00535); conditions: 2 uM
Description: Inhibition of CDK5 at 2 uM

[28] = system: Mus musculus; experiment: Antiarthritic activity in complete Freund's adjuvant-immunized DBA/1J mouse assessed as inhibition of type 2 collagen-induced bone and cartilage erosion at 10 mg/kg, po bid measured on day 20; assay type: functional; conditions: 480 h
[29] = AUC in Sprague-Dawley rat at 4.8 mg/kg, iv; assay type: ADME, organism-based; design: dose 4.8 mg/kg, route intravenous; conditions: plasma
[30] = biological target: Mitogen-activated protein kinase 11 (Homo sapiens) (UniProt Q15759); conditions: 100 uM
[31] = AUC in Sprague-Dawley rat at 43 mg/kg, po; assay type: ADME, organism-based; design: dose 43 mg/kg, route oral; conditions: plasma
[32] = biological target: Cytochrome P450 2C19 (Homo sapiens, UniProt P33261); experiment: Inhibition of human CYP2C19; assay type: ADME
[33] = biological target: Mitogen-activated protein kinase 10 (Homo sapiens) (UniProt P53779); experiment: Inhibition of JNK3 using KRELVEPLTPSGEAPNQALLR as substrate at 100 uM by spectrophotometric enzyme-coupled assay
[34] = Half life in beagle dog at 13.8 mg/kg, iv; assay type: ADME, organism-based, Canis lupus familiaris; design: dose 13.8 mg/kg, route intravenous; conditions: in vivo
[35] = biological target: Ribosomal protein S6 kinase alpha-5 (Homo sapiens) (UniProt O75582); conditions: 2 uM
Description: Inhibition of MSK1 at 2 uM

[36] = Cmax in BALB/c mouse at 40 mg/kg, po; assay type: ADME, organism-based; design: dose 40 mg/kg, route oral; conditions: in vivo
[37] = biological target: Epidermal growth factor receptor (Homo sapiens) (UniProt P00533); conditions: 2 uM
Description: Inhibition of EGFR at 2 uM

[38] = Cmax in beagle dog at 33 mg/kg, po; assay type: ADME, organism-based, Canis lupus familiaris; design: dose 33 mg/kg, route oral; conditions: in vivo
[39] = biological target: Dual specificity mitogen-activated protein kinase kinase 7 (Homo sapiens) (UniProt O14733); conditions: 2 uM
Description: Inhibition of MKK7 at 2 uM

[40] = system: Canis familiaris; experiment: AUC in beagle dog at 13.8 mg/kg, iv; assay type: ADME, organism-based, Canis lupus familiaris, Plasma; design: dose 13.8 mg/kg, route intravenous; conditions: in vivo
[41] = biological target: Protein kinase C beta type (Homo sapiens) (UniProt P05771); experiment: Inhibition of PKCb2 at 2 uM
[42] = system: Mus musculus; experiment: Antiarthritic activity in complete Freund's adjuvant-immunized DBA/1J mouse assessed as inhibition of type 2 collagen-induced paw inflammation at 10 mg/kg, po bid measured on day 20; assay type: functional; conditions: 480 h
[43] = biological target: Cytochrome P450 3A4 (Homo sapiens, UniProt P08684); experiment: Inhibition of human CYP3A4; assay type: ADME
[44] = biological target: Serine/threonine-protein kinase Sgk1 (Homo sapiens) (UniProt O00141); experiment: Inhibition of SGK at 2 uM
[45] = system: Mus musculus; experiment: Antiarthritic activity in complete Freund's adjuvant-immunized DBA/1J mouse assessed as inhibition of type 2 collagen-induced paw inflammation at […], po bid measured on day 20; assay type: functional; conditions: 480 h, dose 2.5 mg/kg
[46] = biological target: Casein kinase I isoform alpha (Homo sapiens) (UniProt P48729); experiment: Inhibition of CK1 at 2 uM
[47] = Inhibition of PKA by filter binding assay
[48] = biological target: Serine/threonine-protein kinase Chk1 (Homo sapiens) (UniProt O14757); conditions: 2 uM
Description: Inhibition of CHK1 at 2 uM

[49] = Half life in beagle dog at 33 mg/kg, po; assay type: ADME, organism-based, Canis lupus familiaris; design: dose 33 mg/kg, route oral; conditions: in vivo
[50] = biological target: Tyrosine-protein kinase Lck (Homo sapiens) (UniProt P06239); experiment: Inhibition of LCK at 2 uM
[51] = biological target: Mitogen-activated protein kinase 3 (Homo sapiens) (UniProt P27361); conditions: 2 uM
Description: Inhibition of ERK1 at 2 uM

Sequence of Mitogen-activated protein kinase 11 (Homo sapiens) (Q15759 whole entry): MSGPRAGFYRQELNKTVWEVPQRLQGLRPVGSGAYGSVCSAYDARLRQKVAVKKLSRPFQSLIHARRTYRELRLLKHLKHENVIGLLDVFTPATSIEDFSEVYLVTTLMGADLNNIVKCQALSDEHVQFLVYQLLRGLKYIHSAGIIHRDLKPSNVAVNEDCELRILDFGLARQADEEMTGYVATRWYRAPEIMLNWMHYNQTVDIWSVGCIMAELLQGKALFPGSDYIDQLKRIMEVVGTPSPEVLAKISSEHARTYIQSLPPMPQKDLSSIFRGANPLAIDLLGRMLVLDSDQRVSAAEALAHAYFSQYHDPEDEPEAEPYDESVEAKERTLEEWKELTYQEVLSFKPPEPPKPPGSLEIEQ
Sequence of Dual specificity mitogen-activated protein kinase kinase 6 (Homo sapiens) (P52564 whole entry): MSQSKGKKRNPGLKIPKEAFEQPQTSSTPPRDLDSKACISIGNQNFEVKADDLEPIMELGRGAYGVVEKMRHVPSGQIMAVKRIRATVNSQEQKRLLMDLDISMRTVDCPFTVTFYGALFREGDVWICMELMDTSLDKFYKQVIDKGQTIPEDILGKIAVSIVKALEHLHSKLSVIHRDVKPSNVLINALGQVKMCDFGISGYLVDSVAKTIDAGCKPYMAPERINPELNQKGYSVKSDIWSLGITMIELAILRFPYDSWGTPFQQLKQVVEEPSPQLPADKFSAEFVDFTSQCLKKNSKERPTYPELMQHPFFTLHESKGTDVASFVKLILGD
Sequence of Mitogen-activated protein kinase 10 (Homo sapiens) (P53779 whole entry): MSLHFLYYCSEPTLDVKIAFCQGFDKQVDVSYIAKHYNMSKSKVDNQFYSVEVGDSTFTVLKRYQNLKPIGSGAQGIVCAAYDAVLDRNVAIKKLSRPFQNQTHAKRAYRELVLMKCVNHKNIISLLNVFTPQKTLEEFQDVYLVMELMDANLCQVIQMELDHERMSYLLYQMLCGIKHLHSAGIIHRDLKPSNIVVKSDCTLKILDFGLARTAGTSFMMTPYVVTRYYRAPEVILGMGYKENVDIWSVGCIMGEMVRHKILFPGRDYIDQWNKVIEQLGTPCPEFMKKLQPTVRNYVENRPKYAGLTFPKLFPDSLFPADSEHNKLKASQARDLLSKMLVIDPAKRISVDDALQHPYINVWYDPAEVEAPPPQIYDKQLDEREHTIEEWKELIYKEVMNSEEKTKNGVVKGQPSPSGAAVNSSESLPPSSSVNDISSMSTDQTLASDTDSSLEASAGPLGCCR
Sequence of RAF proto-oncogene serine/threonine-protein kinase (Homo sapiens) (P04049 whole entry): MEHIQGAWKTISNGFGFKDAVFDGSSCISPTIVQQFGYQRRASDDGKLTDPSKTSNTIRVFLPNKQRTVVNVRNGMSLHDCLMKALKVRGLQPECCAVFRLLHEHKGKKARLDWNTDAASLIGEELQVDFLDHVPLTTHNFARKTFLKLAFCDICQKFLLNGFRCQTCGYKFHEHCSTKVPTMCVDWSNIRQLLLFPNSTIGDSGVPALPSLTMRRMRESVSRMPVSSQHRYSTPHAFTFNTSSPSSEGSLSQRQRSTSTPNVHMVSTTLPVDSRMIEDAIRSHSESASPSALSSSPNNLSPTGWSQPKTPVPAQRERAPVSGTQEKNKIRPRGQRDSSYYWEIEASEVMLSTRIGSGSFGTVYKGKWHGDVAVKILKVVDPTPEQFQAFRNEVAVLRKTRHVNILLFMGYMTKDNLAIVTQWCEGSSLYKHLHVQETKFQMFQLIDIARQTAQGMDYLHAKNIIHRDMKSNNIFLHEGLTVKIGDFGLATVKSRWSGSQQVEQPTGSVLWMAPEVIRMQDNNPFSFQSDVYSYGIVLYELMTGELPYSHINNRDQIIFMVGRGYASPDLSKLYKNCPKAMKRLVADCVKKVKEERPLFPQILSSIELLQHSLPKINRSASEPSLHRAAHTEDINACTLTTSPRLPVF
Sequence of Ribosomal protein S6 kinase alpha-2 (Homo sapiens) (Q15349 whole entry): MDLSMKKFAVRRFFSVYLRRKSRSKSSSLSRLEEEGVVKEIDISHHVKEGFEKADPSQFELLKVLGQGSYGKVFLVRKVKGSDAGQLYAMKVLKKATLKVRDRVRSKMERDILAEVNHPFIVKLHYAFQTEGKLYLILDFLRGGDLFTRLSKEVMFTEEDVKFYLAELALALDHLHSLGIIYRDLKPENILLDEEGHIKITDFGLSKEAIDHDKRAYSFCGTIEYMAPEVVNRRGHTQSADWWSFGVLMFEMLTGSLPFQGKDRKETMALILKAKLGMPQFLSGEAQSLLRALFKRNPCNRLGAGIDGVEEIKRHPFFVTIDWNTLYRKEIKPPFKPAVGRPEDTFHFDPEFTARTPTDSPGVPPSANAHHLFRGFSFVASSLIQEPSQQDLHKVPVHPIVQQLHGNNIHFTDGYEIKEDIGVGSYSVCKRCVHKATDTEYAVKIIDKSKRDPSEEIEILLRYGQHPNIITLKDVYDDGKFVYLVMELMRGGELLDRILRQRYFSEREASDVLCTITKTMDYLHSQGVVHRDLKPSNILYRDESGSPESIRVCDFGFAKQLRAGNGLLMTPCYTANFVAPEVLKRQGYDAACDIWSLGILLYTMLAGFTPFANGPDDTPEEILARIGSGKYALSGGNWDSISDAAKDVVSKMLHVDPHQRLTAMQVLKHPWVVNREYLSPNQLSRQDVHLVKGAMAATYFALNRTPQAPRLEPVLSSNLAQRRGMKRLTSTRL
Sequence of Cytochrome P450 3A4 (P08684 whole entry): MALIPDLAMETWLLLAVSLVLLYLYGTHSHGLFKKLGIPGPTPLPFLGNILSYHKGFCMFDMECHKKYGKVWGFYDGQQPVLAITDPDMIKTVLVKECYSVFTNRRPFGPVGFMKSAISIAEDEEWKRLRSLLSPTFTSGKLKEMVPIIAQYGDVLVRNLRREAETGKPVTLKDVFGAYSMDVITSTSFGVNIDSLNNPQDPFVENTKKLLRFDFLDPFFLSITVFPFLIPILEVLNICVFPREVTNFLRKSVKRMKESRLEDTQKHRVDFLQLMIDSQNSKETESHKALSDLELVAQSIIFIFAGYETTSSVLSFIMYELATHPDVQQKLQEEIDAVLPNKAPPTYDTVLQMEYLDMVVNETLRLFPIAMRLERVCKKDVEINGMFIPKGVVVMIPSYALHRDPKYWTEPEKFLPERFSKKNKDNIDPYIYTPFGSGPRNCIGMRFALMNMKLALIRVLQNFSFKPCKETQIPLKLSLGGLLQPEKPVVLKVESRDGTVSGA
Sequence of Mitogen-activated protein kinase 1 (Homo sapiens) (P28482 whole entry): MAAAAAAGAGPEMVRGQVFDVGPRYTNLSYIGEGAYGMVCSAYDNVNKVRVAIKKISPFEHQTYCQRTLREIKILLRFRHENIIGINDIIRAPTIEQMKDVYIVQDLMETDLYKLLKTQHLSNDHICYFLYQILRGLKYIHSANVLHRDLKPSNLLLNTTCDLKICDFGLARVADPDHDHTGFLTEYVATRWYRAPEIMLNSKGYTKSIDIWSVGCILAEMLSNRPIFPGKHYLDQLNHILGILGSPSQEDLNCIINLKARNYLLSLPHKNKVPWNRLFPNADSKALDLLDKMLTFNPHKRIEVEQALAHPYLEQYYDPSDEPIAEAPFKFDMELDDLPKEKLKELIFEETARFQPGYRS
Sequence of MAP kinase-activated protein kinase 5 (Homo sapiens) (Q8IW41 whole entry): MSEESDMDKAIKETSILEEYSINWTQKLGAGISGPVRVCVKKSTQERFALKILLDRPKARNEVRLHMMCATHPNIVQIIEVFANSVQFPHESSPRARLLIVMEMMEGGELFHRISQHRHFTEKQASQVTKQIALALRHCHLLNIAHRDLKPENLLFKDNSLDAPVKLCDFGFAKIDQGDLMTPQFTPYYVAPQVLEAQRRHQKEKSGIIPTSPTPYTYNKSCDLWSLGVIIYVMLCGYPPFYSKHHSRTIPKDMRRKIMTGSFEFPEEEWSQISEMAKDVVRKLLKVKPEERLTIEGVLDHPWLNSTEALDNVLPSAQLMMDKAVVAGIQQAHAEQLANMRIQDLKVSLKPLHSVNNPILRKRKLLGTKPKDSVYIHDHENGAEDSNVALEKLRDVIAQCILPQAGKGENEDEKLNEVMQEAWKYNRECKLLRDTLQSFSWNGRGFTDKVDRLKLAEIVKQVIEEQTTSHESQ
Sequence of Tyrosine-protein kinase Lck (Homo sapiens) (P06239 2-509 limits assumed): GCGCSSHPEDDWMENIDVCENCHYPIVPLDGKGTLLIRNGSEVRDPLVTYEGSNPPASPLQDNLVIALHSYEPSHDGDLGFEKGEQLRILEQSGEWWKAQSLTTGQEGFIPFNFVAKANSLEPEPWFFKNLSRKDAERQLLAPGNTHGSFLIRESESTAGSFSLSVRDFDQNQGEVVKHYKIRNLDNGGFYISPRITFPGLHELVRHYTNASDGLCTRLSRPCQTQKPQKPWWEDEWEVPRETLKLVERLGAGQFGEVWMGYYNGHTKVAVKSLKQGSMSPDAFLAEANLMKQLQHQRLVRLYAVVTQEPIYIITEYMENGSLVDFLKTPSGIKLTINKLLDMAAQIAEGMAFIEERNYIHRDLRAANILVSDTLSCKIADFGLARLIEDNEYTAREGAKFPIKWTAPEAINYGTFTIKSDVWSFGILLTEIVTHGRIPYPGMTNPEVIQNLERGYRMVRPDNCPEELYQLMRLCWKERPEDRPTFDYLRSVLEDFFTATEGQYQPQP
Sequence of Cyclin-dependent kinase 5 (Homo sapiens) (Q00535 whole entry, looked up): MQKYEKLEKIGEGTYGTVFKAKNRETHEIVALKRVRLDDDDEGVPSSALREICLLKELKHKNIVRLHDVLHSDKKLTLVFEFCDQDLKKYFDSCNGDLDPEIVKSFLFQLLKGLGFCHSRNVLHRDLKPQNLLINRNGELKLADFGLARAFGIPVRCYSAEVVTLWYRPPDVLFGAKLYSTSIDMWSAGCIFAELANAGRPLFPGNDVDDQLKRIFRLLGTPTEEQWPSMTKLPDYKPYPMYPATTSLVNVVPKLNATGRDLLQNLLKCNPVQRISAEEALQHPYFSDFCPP

O=c1ncn2nc(Sc3ccc(F)cc3F)ccc2c1-c1c(Cl)cccc1Cl [NEFLAMAPIMOD]
inhibition [1]: 16%
inhibition [2]: 0%
inhibition [3]: 8%
Cmax [4]: 890 ng/mL
clearance [5]: 39 mL/min/kg
bioavailability [6]: 87%
inhibition [7]: 0%
inhibition [8]: 0%
inhibition [9]: 12%
inhibition [10]: inactive
pIC50 [11]: < 4.40
AUC [12]: 4340 ng·h/mL
AUC [13]: 27000 ng·h/mL
inhibition [14]: 0%
Activity [15]: Not Active
inhibition in vivo at […] [16]: 35%
Vd [17]: 2.2 L/kg
inhibition [18]: 95%
inhibition [19]: 0%
inhibition [20]: 0%
inhibition [21]: 84%
fraction unbound [22]: 0.02
inhibition [23]: 0%
pIC50 [24]: < 4.40
inhibition [25]: 0%
pIC50 [26]: < 4.40
inhibition [27]: 0%
inhibition in vivo at 10 mg/kg [28]: 39%
AUC [29]: 1260 ng·h/mL
inhibition [30]: inactive
AUC [31]: 6300 ng·h/mL
pIC50 [32]: < 4.40
inhibition [33]: inactive
half-life [34]: 1.5 h
inhibition [35]: 0%
Cmax [36]: 7850 ng/mL
inhibition [37]: 7%
Cmax [38]: 1370 ng/mL
inhibition [39]: 0%
AUC [40]: 6120 ng·h/mL
inhibition [41]: 5%
inhibition in vivo at 10 mg/kg [42]: 44%
pIC50 [43]: < 4.40
inhibition [44]: 5%
inhibition in vivo at […] [45]: 27%
inhibition [46]: 1%
pIC50 [47]: < 5.30
inhibition [48]: 0%
half-life [49]: 4.5 h
inhibition [50]: 20%
inhibition [51]: 0%

Source: ChEMBL document CHEMBL2021894, “The Discovery of VX-745: A Novel and Selective p38α Kinase Inhibitor” (ACS Med Chem Lett, 2011)
